Assay: Intrinsic clearance in mouse microsomes assessed as per gram protein at 0.5 uM after 30 mins in presence of NADPH by LC-MS/MS analysis
Type: ADME, Microsome
Conditions: 0.5 h

In the case of CC1(c2ccc(S(N)(=O)=O)cc2)NC(=O)N(CC(=O)c2ccc(F)cc2F)C1=O (racemic), the clearance is reported as 2.67 mL/min/g.

Assay: AUC in C57BL/6J mouse blood infected with Mycobacterium tuberculosis H37Rv at 200 mg/kg, po administered once daily for 4 consecutive days starting from 5 days post infection and measured after 24 hrs post dose
Type: ADME, organism-based
Design: dose 200 mg/kg, time < 24 hr, route oral
Conditions: not given

Compound CC1(c2ccc(S(N)(=O)=O)cc2)NC(=O)N(CC(=O)c2ccc(F)cc2F)C1=O (racemic) has an AUC at 24 h of 31400 ng·h/mL.

Assay: Intrinsic clearance in human microsomes assessed as per gram protein at 0.5 uM after 30 mins in presence of NADPH by LC-MS/MS analysis
Type: ADME, Microsome
Conditions: 0.5 h

For CC1(c2ccc(S(N)(=O)=O)cc2)NC(=O)N(CC(=O)c2ccc(F)cc2F)C1=O (racemic), the clearance was < 0.4 mL/min/g.

Assay: Cmax in C57BL/6J mouse blood infected with Mycobacterium tuberculosis H37Rv at 170 mg/kg, po administered once daily for 4 consecutive days starting from 5 days post infection
Type: ADME, organism-based
Design: dose 170 mg/kg, route oral
Conditions: not given

For CC1(c2ccc(-n3cnnn3)cc2)NC(=O)N(CC(=O)c2ccc(F)cc2F)C1=O (configuration not stated), the Cmax was 1870 ng/mL.

Assay: AUC in C57BL/6J mouse blood infected with Mycobacterium tuberculosis H37Rv at 170 mg/kg, po administered once daily for 4 consecutive days starting from 5 days post infection and measured up to 6 hrs post dose
Type: ADME, organism-based
Design: time < 6 hr, dose 170 mg/kg, route oral
Conditions: not given

CC1(c2ccc(-n3cnnn3)cc2)NC(=O)N(CC(=O)c2ccc(F)cc2F)C1=O (configuration not stated) showed an AUC at 6 h of 6380 ng·h/mL.

Assay: Lipophilicity, log D of compound at pH 7.4 by chromatographic method
Type: physicochemical
Conditions: buffer

C[C@]1(c2ccc(S(N)(=O)=O)cc2)NC(=O)N(CC(=O)c2ccc(F)cc2F)C1=O and C[C@@]1(c2ccc(S(N)(=O)=O)cc2)NC(=O)N(CC(=O)c2ccc(F)cc2F)C1=O are the same in chromatographic logD: 3.17 for the first, 3.17 for the second.

CC1(c2ccc(S(=O)(=O)Nc3ccccc3)cc2)NC(=O)N(CC(=O)c2ccc(F)cc2F)C1=O (racemic) and CC1(c2ccc(NS(=O)(=O)c3ccccc3)cc2)NC(=O)N(CC(=O)c2ccc(F)cc2F)C1=O (racemic) are within 0.2 log units of each other in chromatographic logD: 5.03 for the first, 4.9 for the second.

First: CCCCS(=O)(=O)Nc1ccc(C2(C)NC(=O)N(CC(=O)c3ccc(F)cc3F)C2=O)cc1 (racemic)
Second: CC1(c2ccc(NS(=O)(=O)C(F)(F)F)cc2)NC(=O)N(CC(=O)c2ccc(F)cc2F)C1=O (racemic)
The chromatographic logD of the first is higher: 4.96 for the first, 3.24 for the second.

Compared with CC1(c2ccc(C#N)cc2)NC(=O)N(CC(=O)c2ccc(Cl)s2)C1=O (racemic), CC1(c2ccc(S(N)(=O)=O)cc2)NC(=O)N(CC(=O)c2ccc(Cl)s2)C1=O (racemic) is lower in chromatographic logD: 4.85 for the first, 3.52 for the second.

CC1(c2ccc(S(N)(=O)=O)cc2)NC(=O)N(CC(=O)c2cccc(C(F)(F)F)c2)C1=O (racemic) and CC1(c2ccc(S(N)(=O)=O)cc2)NC(=O)N(CC(=O)c2cccc(OC(F)(F)F)c2)C1=O (racemic) are within 0.2 log units of each other in chromatographic logD: 3.96 for the first, 4.14 for the second.

CC1(c2ccc(S(N)(=O)=O)cc2)NC(=O)N(CC(=O)c2ccc(F)cc2F)C1=O (racemic) and CC1(c2ccc(S(N)(=O)=O)cc2)NC(=O)N(CC(=O)c2ccc(F)cc2O)C1=O (racemic) are within 0.2 log units of each other in chromatographic logD: 3.19 for the first, 3.12 for the second.

First: CC1(c2ccc(S(N)(=O)=O)cc2)NC(=O)N(CC(=O)C23CC4CC(CC(C4)C2)C3)C1=O (racemic)
Second: CC1(c2ccc(S(N)(=O)=O)cc2)NC(=O)N(CC(=O)C2CCCCC2)C1=O (racemic)
The chromatographic logD of the first is lower: 2.52 for the first, 3.62 for the second.

Compared with CC1(c2ccc(S(N)(=O)=O)cc2)NC(=O)N(CC(=O)c2ccc(F)c(Cl)c2)C1=O (racemic), CC1(c2ccc(S(N)(=O)=O)cc2)NC(=O)N(CC(=O)c2ccc(F)c(F)c2)C1=O (racemic) is lower in chromatographic logD: 3.82 for the first, 3.34 for the second.

Going from CC(=O)CN1C(=O)NC(C)(c2ccc(S(N)(=O)=O)cc2)C1=O (racemic) to CC1(c2ccc(S(N)(=O)=O)cc2)NC(=O)N(CC(=O)C2CC2)C1=O (racemic), the chromatographic logD rises from 0.54 to 1.51.

Compared with CC1(c2ccc(S(N)(=O)=O)cc2)NC(=O)N(CC(=O)c2ccccc2C(F)(F)F)C1=O (racemic), CC1(c2ccc(S(N)(=O)=O)cc2)NC(=O)N(CC(=O)c2ccccc2F)C1=O (racemic) is lower in chromatographic logD: 3.56 for the first, 2.94 for the second.

First: CC1(c2ccc(S(N)(=O)=O)cc2)NC(=O)N(CC(=O)c2ccc3ccccc3c2)C1=O (racemic)
Second: CC1(c2ccc(S(N)(=O)=O)cc2)NC(=O)N(CC(=O)c2ccccc2)C1=O (racemic)
The chromatographic logD of the first is higher: 3.93 for the first, 2.81 for the second.

Compared with CNS(=O)(=O)c1ccc(C2(C)NC(=O)N(CC(=O)c3ccc(F)cc3F)C2=O)cc1 (racemic), CC1(c2ccc(S(=O)(=O)NC3CC3)cc2)NC(=O)N(CC(=O)c2ccc(F)cc2F)C1=O (racemic) is higher in chromatographic logD: 3.88 for the first, 4.48 for the second.

First: CN(C)S(=O)(=O)c1ccc(C2(C)NC(=O)N(CC(=O)c3ccc(F)cc3F)C2=O)cc1 (racemic)
Second: CC1(c2ccc(CS(C)(=O)=O)cc2)NC(=O)N(CC(=O)c2ccc(F)cc2F)C1=O (racemic)
The chromatographic logD of the first is higher: 4.6 for the first, 3.54 for the second.

Going from CC1(c2ccc(C#N)cc2)NC(=O)N(CC(=O)c2ccccc2F)C1=O (racemic) to Cc1ccccc1C(=O)CN1C(=O)NC(C)(c2ccc(C#N)cc2)C1=O (racemic), the chromatographic logD rises from 4.3 to 4.73.

Compared with CC1(c2ccc(S(N)(=O)=O)cc2)NC(=O)N(CC(=O)c2ncc(F)cc2F)C1=O (racemic), CC1(c2ccc(S(N)(=O)=O)cc2)NC(=O)N(CC(=O)c2cccc(F)c2)C1=O (racemic) is higher in chromatographic logD: 2.39 for the first, 3.08 for the second.

Compared with CC1(c2ccc(S(N)(=O)=O)cc2)NC(=O)N(CC(=O)c2nc3ccccc3s2)C1=O (racemic), Cc1ccccc1C(=O)CN1C(=O)NC(C)(c2ccc(S(N)(=O)=O)cc2)C1=O (racemic) is lower in chromatographic logD: 3.78 for the first, 3.3 for the second.

First: Cc1cccc(C(=O)CN2C(=O)NC(C)(c3ccc(S(N)(=O)=O)cc3)C2=O)c1 (racemic)
Second: CC1(c2ccc(S(N)(=O)=O)cc2)NC(=O)N(CC(=O)c2cccc(Br)c2)C1=O (racemic)
The chromatographic logD of the first is lower: 3.36 for the first, 3.77 for the second.

Compared with CC1(c2ccc3c(c2)NC(=O)CO3)NC(=O)N(CC(=O)c2ccc(F)cc2F)C1=O (racemic), CC1(c2ccc(C(=O)O)cc2)NC(=O)N(CC(=O)c2ccc(F)cc2F)C1=O (racemic) is lower in chromatographic logD: 3.38 for the first, 1.49 for the second.

Going from CC1(c2ccc(S(N)(=O)=O)cc2)NC(=O)N(CC(=O)c2cccnc2)C1=O (racemic) to CC1(c2ccc(S(N)(=O)=O)cc2)NC(=O)N(CC(=O)c2ccncc2)C1=O (racemic), the chromatographic logD falls from 3.48 to 2.46.

First: CC1(c2ccc(-c3nnn[nH]3)cc2)NC(=O)N(CC(=O)c2ccc(F)cc2F)C1=O (racemic)
Second: CC1(c2ccc(C(N)=O)cc2)NC(=O)N(CC(=O)c2ccc(F)cc2F)C1=O (racemic)
The chromatographic logD of the first is lower: 1.85 for the first, 2.68 for the second.

Going from CC1(c2ccc(NC(N)=O)cc2)NC(=O)N(CC(=O)c2ccc(F)cc2F)C1=O (racemic) to COC(=O)c1ccc(C2(C)NC(=O)N(CC(=O)c3ccc(F)cc3F)C2=O)cc1 (racemic), the chromatographic logD rises from 2.71 to 4.84.

Compared with CC1(c2ccc(C#N)cc2)NC(=O)N(CC(=O)c2ccc(F)c(C(F)(F)F)c2)C1=O (racemic), CC1(c2ccc(S(N)(=O)=O)cc2)NC(=O)N(CC(=O)c2ccc(F)c(C(F)(F)F)c2)C1=O (racemic) is lower in chromatographic logD: 5.38 for the first, 4.24 for the second.

Going from CC1(c2ccc(S(N)(=O)=O)cc2)NC(=O)N(CC(=O)c2ccc(Cl)cc2Cl)C1=O (racemic) to COc1ccccc1C(=O)CN1C(=O)NC(C)(c2ccc(S(N)(=O)=O)cc2)C1=O (racemic), the chromatographic logD falls from 4.11 to 2.98.

First: CC1(c2ccc(S(N)(=O)=O)cc2)NC(=O)N(CC(=O)c2ccc(C(F)(F)F)cc2)C1=O (racemic)
Second: CC1(c2ccc(S(N)(=O)=O)cc2)NC(=O)N(CC(=O)c2ccc(F)cc2)C1=O (racemic)
The chromatographic logD of the first is higher: 4.15 for the first, 3.03 for the second.

Going from CC1(c2ccc(S(N)(=O)=O)cc2)NC(=O)N(CC(=O)c2nccs2)C1=O (racemic) to CC1(c2ccc(S(N)(=O)=O)cc2)NC(=O)N(CC(=O)c2cccs2)C1=O (racemic), the chromatographic logD rises from 1.9 to 2.35.

First: Cc1ccc(C(=O)CN2C(=O)NC(C)(c3ccc(S(N)(=O)=O)cc3)C2=O)cc1 (racemic)
Second: COc1ccc(C(=O)CN2C(=O)NC(C)(c3ccc(S(N)(=O)=O)cc3)C2=O)cc1 (racemic)
The chromatographic logD of the first is higher: 3.33 for the first, 2.86 for the second.

Going from CC1(c2ccc(C#N)cc2)NC(=O)N(CC(=O)c2cccc(F)c2)C1=O (racemic) to Cc1cccc(C(=O)CN2C(=O)NC(C)(c3ccc(C#N)cc3)C2=O)c1 (racemic), the chromatographic logD rises from 4.39 to 4.71.

First: CC1(c2ccc(S(N)(=O)=O)cc2)NC(=O)N(CC(=O)c2cccc(C#N)c2)C1=O (racemic)
Second: COc1cccc(C(=O)CN2C(=O)NC(C)(c3ccc(S(N)(=O)=O)cc3)C2=O)c1 (racemic)
The chromatographic logD of the first is lower: 2.4 for the first, 3 for the second.

Going from CC1(c2ccc(S(N)(=O)=O)cc2)NC(=O)N(CC(=O)c2ccccn2)C1=O (racemic) to CC1(c2ccc(C#N)cc2)NC(=O)N(CC(=O)c2ccccn2)C1=O (racemic), the chromatographic logD falls from 4.87 to 2.03.

Going from CC1(c2ccc(S(=O)(=O)NCC(F)(F)F)cc2)NC(=O)N(CC(=O)c2ccc(F)cc2F)C1=O (racemic) to CC1(c2ccc(S(=O)(=O)N3CCOCC3)cc2)NC(=O)N(CC(=O)c2ccc(F)cc2F)C1=O (racemic), the chromatographic logD falls from 4.78 to 4.39.

First: CC1(c2ccc(S(N)(=O)=O)cc2)NC(=O)N(CC(=O)c2cccc([N+](=O)[O-])c2)C1=O (racemic)
Second: CC1(c2ccc(S(N)(=O)=O)cc2)NC(=O)N(CC(=O)c2ccc(C#N)cc2)C1=O (racemic)
The chromatographic logD of the first is higher: 2.77 for the first, 2.54 for the second.

Going from CC(C)(C)C(=O)Oc1cc(F)ccc1C(=O)CN1C(=O)NC(C)(c2ccc(C#N)cc2)C1=O (racemic) to CC1(c2ccc(C#N)cc2)NC(=O)N(CC(=O)c2ccc(F)cc2O)C1=O (racemic), the chromatographic logD falls from 5.84 to 4.56.

CC1(c2ccc(C#N)cc2)NC(=O)N(CC(=O)c2ccncc2)C1=O (racemic) and CC1(c2ccc(C#N)cc2)NC(=O)N(CC(=O)c2cccnc2)C1=O (racemic) are the same in chromatographic logD: 1.16 for the first, 1.16 for the second.

Going from CC1(c2ccc(C#N)cc2)NC(=O)N(CC(=O)c2cccc(OC(F)(F)F)c2)C1=O (racemic) to CC1(c2ccc(C#N)cc2)NC(=O)N(CC(=O)c2ccccc2)C1=O (racemic), the chromatographic logD falls from 5.5 to 4.19.

Compared with CC1(c2ccc(N3CCCOC3=O)cc2)NC(=O)N(CC(=O)c2ccc(F)cc2F)C1=O (racemic), Cc1ccc(C(=O)CN2C(=O)NC(C)(c3ccc(C#N)cc3)C2=O)cc1 (racemic) is higher in chromatographic logD: 3.36 for the first, 4.73 for the second.

For CC1(c2ccc(S(N)(=O)=O)cc2)NC(=O)N(CC(=O)c2cc(C(F)(F)F)cc(C(F)(F)F)c2)C1=O (racemic), the chromatographic logD was 4.9.

Assay: Cmax in C57BL/6J mouse blood infected with Mycobacterium tuberculosis H37Rv at 200 mg/kg, po administered once daily for 4 consecutive days starting from 5 days post infection
Type: ADME, organism-based
Design: dose 200 mg/kg, route oral
Conditions: not given

Work on CC1(c2ccc(S(N)(=O)=O)cc2)NC(=O)N(CC(=O)c2ccc(F)cc2F)C1=O (racemic) yielded a Cmax of 6380 ng/mL.

— ChEMBL document CHEMBL4402609, “Optimization of Hydantoins as Potent Antimycobacterial Decaprenylphosphoryl-β-d-Ribose Oxidase (DprE1) Inhibitors” (J Med Chem, 2020)
